Source: patent publication US20070213291A1, “Therapeutically useful synthetic oligonucleotides” (priority 1999, published 2007)
Several values for one entry are separate records, joined by “and”; a condition that tells them apart may be missing. Equal entries are not always repeated.

Experiments:
[1] = system: EL-4 murine T lymphoma cells; assay: Inhibition of EL-4 cell proliferation (MTT); format: cell-based; conditions: 100 μg/ml, 48 h
Protocol: (§1) Cells were seeded in 6 (1 ml/well), 24 (0.5 ml/well) or 96 (0.1 ml/well) well flat-bottom microplates and were maintained at 37° C. in a 5% CO2 atmosphere. Unless stated otherwise, 2.5×10^5 cells/ml were incubated with 0 μg/ml (control) and 100 μg/ml (treated) of 2 to 45 base sequences containing A, C, G and T for 48 h.
(§2) Cell proliferation was measured using dimethylthiazol-diphenyl-tetrazolium (MTT) reduction (Mosman et al. J. Immunol. Methods 65:55, 1983). MTT was measured at a wavelength of 570 nm using a multiplate spectrophotometer reader (ELX800, Bio-TEK Instruments Inc., Winooski, Vt.).
EL-4 murine lymphoma T cells are a suspension tumor model. EL-4 murine lymphoma T cells were incubated with 6, 18, 27 and 33 base GT sequences and with a 15 base ACG sequence (Table 18).

[2] = system: A20 murine B leukemia cells; assay: Inhibition of A20 cell proliferation (MTT); format: cell-based; conditions: 100 μg/ml, 48 h
Protocol: as §1, §2
A20 murine leukemia B cells are a suspension tumor model. A20 murine leukemia B cells were incubated with 6 base GT sequences (Table 19).

[3] = system: D-17 canine osteosarcoma cells; assay: Inhibition of D-17 cell proliferation (MTT); format: cell-based; conditions: 100 μg/ml, 48 h, 5×10^5 cells/ml
Protocol: as §1, §2
(§3) D-17 canine osteosarcoma cells and CF-51 canine mammary gland cancer cells are solid tumor models. D-17 canine osteosarcoma cells (5×10^5 cells/ml) (Table 20) and CF-51 canine mammary gland cancer cells (5×10^5 cells/ml) (Table 21) were incubated with 6, 9, 17, 27 and 33 base GT-sequences and with a 15 base ACG sequence.

[4] = system: CF-51 canine mammary gland cancer cells; assay: Inhibition of CF-51 cell proliferation (MTT); format: cell-based; conditions: 100 μg/ml, 48 h, 5×10^5 cells/ml
Protocol: as §1, §2, §3

[5] = system: Jurkat human leukemia T cells; assay: Apoptosis by phosphatidylserine/annexin V-FITC flow cytometry; format: cell-based; conditions: 50 μM sequence
Method in brief: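 Jurkat cells were exposed to 3–7-base oligonucleotides (GT, ACGT, AG, GG, AGT, CGT sequences) at 50 μM. Separately, 6-base GT and complementary AC sequences, alone or hybridized 1:1 (10 min, 65 °C), were applied for 24 h. Phosphatidylserine exposure was quantified by flow cytometry with FITC-annexin V.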

[6] = system: Jurkat human leukemia T cells; assay: NuMA release into supernatant (ELISA); format: cell-based; conditions: for % NuMA released (treated vs untreated cells): 50 μM sequence
Method in brief: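 Jurkat T cells (1×10^6/ml) exposed to GT-containing oligonucleotide sequences, at 50 μM in some experiments, for 24 h in some experiments. NuMA released into the supernatant quantified by commercial ELISA.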

[7] = system: human peripheral blood mononuclear cells; assay: Cytokine production by human PBMC (ELISA); format: cell-based; conditions: PBMC of 7 healthy humans, 100 μg/ml, 48 h
Method in brief: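 PBMC from 7 healthy donors, Ficoll-isolated; 1×10^6 cells incubated with 100 μg/ml oligonucleotide sequence for 48 h at 37 °C, 5% CO2. IL-1beta, IL-6, IL-10, IL-12 (p70 plus free p40) and TNF-alpha measured by ELISA in supernatant, expressed as fold increase over control cells.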

[8] = system: chimpanzee PBMCs; assay: Cytokine production by chimpanzee PBMC (ELISA); format: cell-based; conditions: PBMC of 4 healthy chimpanzees, 100 μg/ml, 48 h
Method in brief: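 PBMCs from 4 healthy chimpanzees (1×10^6 cells) were incubated 48 h at 37 °C, 5% CO2 with 100 μg/ml of each 6-base sequence. Supernatant IL-10, IL-12 (p70 plus free p40) and TNF-alpha were measured by ELISA. Values are fold increase over untreated control cells.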

[9] = system: Jurkat human leukemia T cells; assay: Intracellular calcium (Fluo-3-AM fluorescence); format: cell-based; conditions: 24 h, 100 μg/ml
Protocol: Increases in intracellular calcium (Ca^2+)i are reported to be associated with apoptosis induction (Lam et al. Mol. Endocrinol. 7:686, 1993). (Ca^2+)i was followed using the fluorescent probe Fluo-3-AM (Cell Permaant, Molecular Probes, Inc., Eugene, Oreg.). An increase in Fluo-3-AM fluorescence is indicative of an increase in (Ca^2+)i.
Jurkat human leukemia T cells were incubated for 24 h with 6 base GT SEQ. NO:25. Cells were collected by centrifugation, suspended in PBS containing 1% FBS and loaded with 10 μM Fluo-3-AM for 1 h at 37° C. Cell fluorescence was measured at 488 nm excitation and 530 nm emission (FL1 detector). Data were analyzed on a FACSCALIBUR using the program CellQUEST (Becton Dickinson).

[10] = system: MCF-7 human breast cancer cells; assay: MCF-7 human breast tumor xenografts in female nude BALB/c mice; format: in vivo; conditions: after 4 weeks of treatment, compared with other groups (group 1 saline)
Protocol: MCF-7 human breast cancer cells are implanted subcutaneously as xenografts, in female nude BALB/c mice. The mice are divided into 6 groups of 10 mice. […] After 4 weeks of treatment, the mice are sacrificed and tumor mass is determined.

Sequence: GTGTGT [SEQ ID NO:10]
- % INHIBITION of EL-4 murine T lymphoma cell proliferation [1]: −2%
- % INHIBITION of A20 murine B leukemia cell proliferation [2]: 9%
- % INHIBITION of D-17 canine osteosarcoma cell proliferation [3]: 15%
- % INHIBITION of CF-51 canine mammary gland cancer cell proliferation [4]: 15%
- % of cells in apoptosis (positive for PS/A-V staining) [5]: 33%
- % NuMA released (treated vs untreated cells) ([6]; Jurkat): 90%
- IL-1 beta fold increase: mean +/− SD [7]: 2.0 +/− 1.6 fold increase
- IL-6 fold increase: mean +/− SD [7]: 9.8 +/− 14.2 fold increase
- IL-10 fold increase: mean +/− SD [7]: 1.0 +/− 0.1 fold increase
- IL-12 fold increase: mean +/− SD [7]: 4.0 +/− 6.3 fold increase
- IL-10 fold increase: mean +/− SD [8]: 4.0 +/− 2.1 fold increase
- IL-12 fold increase: mean +/− SD [8]: 14.0 +/− 8.5 fold increase
- TNF-alpha fold increase: mean +/− SD [8]: 12.9 +/− 6.4 fold increase

Sequence: GGGTGG [SEQ ID NO:25]
- % INHIBITION of EL-4 murine T lymphoma cell proliferation [1]: 4% and 1%
- % INHIBITION of A20 murine B leukemia cell proliferation [2]: 11%
- % INHIBITION of D-17 canine osteosarcoma cell proliferation [3]: 18%
- % INHIBITION of CF-51 canine mammary gland cancer cell proliferation [4]: 14%
- % of cells in apoptosis (positive for PS/A-V staining) [5]: 27%
- % NUMA RELEASED ([6]; Jurkat 1×10^6/ml): 269%
- % NuMA released (treated vs untreated cells) ([6]; Jurkat): 69%
- % NuMA released (untreated vs treated cells) ([6]; Jurkat, 24 h, sequences heated 10 minutes at 65° C.): 69%
- increase in cell fluorescence (Fluo-3-AM), indicative of (Ca2+)i [9]: 88%
- IL-1 beta fold increase: mean +/− SD [7]: 1.0 +/− 0.1 fold increase
- IL-6 fold increase: mean +/− SD [7]: 20.9 +/− 18.0 fold increase
- IL-10 fold increase: mean +/− SD [7]: 11.6 +/− 1.2 fold increase
- IL-12 fold increase: mean +/− SD [7]: 13.2 +/− 11.5 fold increase
- IL-10 fold increase: mean +/− SD [8]: 2.5 +/− 1.5 fold increase
- IL-12 fold increase: mean +/− SD [8]: 13.5 +/− 8.4 fold increase
- TNF-alpha fold increase: mean +/− SD [8]: 11.7 +/− 6.7 fold increase
- tumor mass [10]: less tumor mass than group 1 mice

Sequence: TTGTTT [SEQ ID NO:26]
- % INHIBITION of A20 murine B leukemia cell proliferation [2]: 15%
- % of cells in apoptosis (positive for PS/A-V staining) [5]: 14%
- % NuMA released (treated vs untreated cells) ([6]; Jurkat): 23%
- IL-1 beta fold increase: mean +/− SD [7]: 1.5 +/− 0.9 fold increase
- IL-6 fold increase: mean +/− SD [7]: 5.8 +/− 8.0 fold increase
- IL-10 fold increase: mean +/− SD [7]: 1.0 +/− 0.1 fold increase
- IL-12 fold increase: mean +/− SD [7]: 1.6 +/− 1.3 fold increase
- IL-10 fold increase: mean +/− SD [8]: 1.4 +/− 0.9 fold increase
- IL-12 fold increase: mean +/− SD [8]: 12.3 +/− 8.5 fold increase
- TNF-alpha fold increase: mean +/− SD [8]: 7.5 +/− 4.6 fold increase
